Test results from US4556671A, “Pharmaceutical formulations” (Burroughs Wellcome Co., priority 1981, dated 1985).
Values after ≈ are worked out from the molar mass of the structure shown. Read-outs that look alike come from different tables or passages of the source.

What was measured:
[1] = test system: mice; assay: PBQ-Induced Algesia; assay type: in vivo; details: Mus musculus, po, read-out: ED50 (reduction of number of stretches by 50%)
Experimental: An irritant, p-phenylbenzquinone (PBQ), was administered to mice intraperitoneally at a dose of 5 mg/kg to elicit a stretch-reflex in the animal. The number of stretches in 25 minute period were counted.

[2] = test system: Female Wistar rats; assay: Acute Anti-inflammatory Activity: Carrageenin Test; assay type: in vivo, rat
Experimental: Female Wistar rats (100-150 g, groups of 5) were starved for approximately 24 hours prior to testing and througout the experimental period. Water was available ad. lib. […] A control group received Celacol alone. Immediately after dosing, each rat received, in a plantar area of the left hind foot, an injection of 0.1 ml of the supernatant of a 30 mg/ml suspension of carrageenin in 0.9% saline. The thickness of the foot was measured with calipers 1 hour and 4 hours after the carrageenin injection. The increases in foot thickness during this time was compared with those of the control group and the percentage reduction in swelling calculated for each tested group.

[3] = test system: Prostaglandin; assay: Carrageenin-impregnated sponge inflammatory exudates: prostaglandin concentration; assay type: in vivo, rat; details: 24 hours
Experimental: (§1) The sponges were removed after 24 hours, immersed in 5 ml herparinised saline and squeezed until dry.

[4] = test system: Leukocyte Migration; assay: Carrageenin-impregnated sponge inflammatory exudates: leukocyte migration; assay type: in vivo, rat; details: 24 hours
Experimental: as §1

[5] = test system: cyclo-oxygenase and lipoxygenase
[6] = test system: HETE; assay: Production of HETE (enzyme assay, Blackwell and Flower); assay type: biochemical; details: 100 μg/ml
[7] = target: lipoxygenase; assay: Inhibition of Lipoxygenase (enzyme assay, Blackwell and Flower); assay type: biochemical
[8] = 30 mins prior to PBQ 5 mg/kg intraperitoneally, stretches in 25 minutes
[9] = rat, oral, suspension in 0.25% Celacol, reduction in foot swelling 1 to 4 hours after carrageenin, read-out: ED50

Compound `CC(=O)Oc1ccccc1C(=O)O` [Aspirin, reference compound] has an ED50 [1] of 70 mg/kg and an ED50 ([2]; Rattus norvegicus, po, 4 h) of 70 mg/kg.

With `C[C@@H]1C[C@H]2[C@@H]3CCC4=CC(=O)C=C[C@]4(C)[C@@]3(F)[C@@H](O)C[C@]2(C)[C@@]1(O)C(=O)CO` [Dexamethasone] the “Reduction of Prostaglandin Concentration” value ([3]; 0.1 mg/kg i.m., s.e.m) was 64% ± 6, the “Reduction of Prostaglandin Concentration” value ([3]; 0.1 mg/kg p.o.) was ~ 30% and the “Inhibition of Leukocyte Migration” value ([4]; 0.1 mg/kg i.m., s.e.m) was 62% ± 17. The “Inhibition of Leukocyte Migration” value ([4]; 0.1 mg/kg p.o.) was ~ 30%.

For `NC1=NN(c2cccc(C(F)(F)F)c2)CC1` [Example 1, 3-Amino-1-(m-trifluoromethylphenyl)pyrazol-2-ine], the ED50 [1, 8] was 20.6 mg/kg, the “inhibition of cyclo-oxygenase and lipoxygenase activity (in words)” value [5] was “equally active in inhibiting cyclo-oxygenase and lipoxygenase activity” and the “doses at which cyclo-oxygenase and lipoxygenase are inhibited (in words)” value ([5]; compared with the other heterocyclic compounds of formula (I)) was “at doses substantially below those of the other heterocyclic compounds of formula (I)”. For the same compound, the “reduction of the production of HETE” value [6] was “less than 20%”, the “Inhibition of Leukocyte Migration” value ([4]; 50 mg/kg p.o., s.e.m) was 73% ± 9 and the ED50 [2, 9] was 11 mg/kg. For the same compound, the “IC50 (lipoxygenase)” value [7] was 0.72 µg/mL (≈ 3.14 µM).

Compound `NC1=NN(c2ccc(Cl)cc2)CC1` [Example 6, 3-Amino-1-p-chlorophenyl-2-pyrazoline] has an ED50 [1, 8] of 13 mg/kg and an ED50 [2, 9] of 22 mg/kg.

`NC1=NN(c2ccccc2)CC1` [Example 7, 3-Amino-1-phenyl-2-pyrazoline] gave an ED50 [2, 9] of 60 mg/kg.

For `CC1CC(N)=NN1c1ccc(Cl)cc1.Cl` (centres unmarked) [Example 24, 3-Amino-1-p-chlorophenyl-5-methyl-2-pyrazoline hydrochloride], the ED50 [2, 9] was 36 mg/kg.

In the case of `COc1ccc2c(c1)c(CC(=O)O)c(C)n2C(=O)c1ccc(Cl)cc1` [Indomethacin], the “Reduction of Prostaglandin Concentration” value ([3]; 4 mg/kg p.o.) is reported as 98% and the “Inhibition of Leukocyte Migration” value ([4]; 4 mg/kg p.o., s.e.m) is reported as 26% ± 7.

For `CCCCC1C(=O)N(c2ccccc2)N(c2ccccc2)C1=O` [Phenylbutazone, reference compound], the ED50 [2, 9] was 22 mg/kg.
